“Also recorded” adds a separate entry of the source. Read-outs that look alike come from different tables or passages of the source. A value given as a limit tells only on which side of the number the result lay.

The text below walks through data of patent US20060100243A1 (priority 2004, published 2006).

The test system of one data set is male Swiss-Webster mice. In words: dose response study of induced locomotor stimulation. The settings on record: for time of occurrence of stimulant effects following injection: at the active doses.
In data set [1] the target is T1, recombinant human serotonin transporter (Homo sapiens, UniProt P31645).
T1 construct: expressed in transfected cells
T1 sequence (P31645 whole entry): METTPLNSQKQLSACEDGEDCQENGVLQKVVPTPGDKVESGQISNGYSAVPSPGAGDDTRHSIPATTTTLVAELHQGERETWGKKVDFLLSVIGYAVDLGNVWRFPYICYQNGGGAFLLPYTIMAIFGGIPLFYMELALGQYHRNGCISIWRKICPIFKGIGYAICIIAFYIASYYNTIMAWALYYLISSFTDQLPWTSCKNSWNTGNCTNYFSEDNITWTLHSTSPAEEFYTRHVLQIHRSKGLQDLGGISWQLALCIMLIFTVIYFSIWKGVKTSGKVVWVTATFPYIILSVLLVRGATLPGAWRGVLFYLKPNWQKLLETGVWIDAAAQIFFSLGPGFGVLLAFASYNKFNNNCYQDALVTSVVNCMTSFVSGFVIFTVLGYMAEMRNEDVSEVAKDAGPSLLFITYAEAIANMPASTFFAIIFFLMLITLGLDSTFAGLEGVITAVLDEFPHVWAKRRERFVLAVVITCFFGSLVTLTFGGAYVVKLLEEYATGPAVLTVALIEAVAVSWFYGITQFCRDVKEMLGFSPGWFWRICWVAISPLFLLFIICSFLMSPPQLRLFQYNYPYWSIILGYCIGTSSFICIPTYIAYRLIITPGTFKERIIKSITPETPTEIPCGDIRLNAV
Briefly: biochemical. The class given is binding.

Data set [2] concerns the target T2, recombinant human norepinephrine transporter (Homo sapiens, UniProt P23975).
T2 construct: expressed in transfected cells
In words: cell-based.

Data set [3] concerns the target T1, recombinant human serotonin transporter. In words: serotonin (5HT) reuptake inhibition in HEK 293 cells. The class given is cell-based. The settings on record: HEK 293 cells.
In data set [4] the target is T2, recombinant human norepinephrine transporter. Briefly: biochemical. The class given is binding.
For data set [5] the following is noted: prescribed doses; cited from earlier work.
Data set [6] addresses T3, recombinant human dopamine transporter (Homo sapiens, UniProt Q01959).
T3 construct: expressed in transfected cells
In words: dopamine reuptake inhibition in HEK 293 cells. The class given is cell-based. The note with it: for IC50: HEK 293 cells; for selectivity for the dopamine transporter over the norepinephrine transporter: in words, from binding and reuptake values; for NE/DA REUPTAKE: ratio of NE/DA reuptake IC50, selectivity for dopamine over norepinephrine transporter.

Data set [7] addresses T3, recombinant human dopamine transporter. In words: [125I]RTI-55 binding, dopamine transporter in HEK 293 cells. The note with it: for Ki: HEK 293 cells; for potency at binding to the dopamine transporter and blocking dopamine reuptake: in words, compared with MPH / other samples.
[8] abbreviates: SEROTONIN [I125]-RTI-55 BINDING (Ki).
Setting [9] is: SEROTONIN 5HT REUPTAKE (IC50), RR/SS racemates table.
Setting [10] is: SEROTONIN 5HT REUPTAKE (IC50), RS/SR racemates table.
[11] abbreviates: RR/SS racemates table, read-out: DOPAMINE DA REUPTAKE (IC50).
The mark [12] stands for this setting: RR/SS racemates table, HEK 293 cells, read-out: NOREPINEPHRINE NE REUPTAKE (IC50).
[13] abbreviates: RR/SS racemates table, HEK 293 cells, read-out: NOREPINEPHRINE [I125]-RTI-55 BINDING (Ki).
[14] abbreviates: RR/SS racemates table, read-out: DOPAMINE [I125]-RTI-55 BINDING (Ki).
[15] abbreviates: DOPAMINE DA REUPTAKE (IC50), RS/SR racemates table.
The mark [16] stands for this setting: DOPAMINE [I125]-RTI-55 BINDING (Ki), RS/SR racemates table.
[17] abbreviates: DOPAMINE DA REUPTAKE (IC50), RR/SS racemates table.
Where [18] appears, read: DOPAMINE [I125]-RTI-55 BINDING (Ki), RR/SS racemates table.
The mark [19] stands for this setting: NOREPINEPHRINE [I125]-RTI-55 BINDING (Ki).
Setting [20] is: RR/SS racemates table, HEK 293 cells, read-out: SEROTONIN [I125]-RTI-55 BINDING (Ki).

T2 sequence (P23975 whole entry): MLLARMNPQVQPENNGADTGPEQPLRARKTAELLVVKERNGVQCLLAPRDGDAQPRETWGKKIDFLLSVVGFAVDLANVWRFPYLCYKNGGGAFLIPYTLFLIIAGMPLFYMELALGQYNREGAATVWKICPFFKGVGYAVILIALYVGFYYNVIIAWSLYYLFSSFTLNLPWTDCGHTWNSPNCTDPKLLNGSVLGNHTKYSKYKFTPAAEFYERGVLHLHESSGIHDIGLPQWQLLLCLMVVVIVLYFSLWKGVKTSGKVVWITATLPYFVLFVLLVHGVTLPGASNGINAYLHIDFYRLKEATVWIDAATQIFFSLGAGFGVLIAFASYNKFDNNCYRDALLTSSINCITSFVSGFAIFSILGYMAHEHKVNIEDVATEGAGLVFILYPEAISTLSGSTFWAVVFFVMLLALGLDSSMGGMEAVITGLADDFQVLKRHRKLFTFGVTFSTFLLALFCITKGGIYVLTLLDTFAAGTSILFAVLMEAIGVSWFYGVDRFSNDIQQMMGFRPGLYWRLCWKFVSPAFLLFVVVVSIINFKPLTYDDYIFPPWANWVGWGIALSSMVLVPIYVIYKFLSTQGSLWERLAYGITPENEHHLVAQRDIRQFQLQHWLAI
T3 sequence (Q01959 whole entry): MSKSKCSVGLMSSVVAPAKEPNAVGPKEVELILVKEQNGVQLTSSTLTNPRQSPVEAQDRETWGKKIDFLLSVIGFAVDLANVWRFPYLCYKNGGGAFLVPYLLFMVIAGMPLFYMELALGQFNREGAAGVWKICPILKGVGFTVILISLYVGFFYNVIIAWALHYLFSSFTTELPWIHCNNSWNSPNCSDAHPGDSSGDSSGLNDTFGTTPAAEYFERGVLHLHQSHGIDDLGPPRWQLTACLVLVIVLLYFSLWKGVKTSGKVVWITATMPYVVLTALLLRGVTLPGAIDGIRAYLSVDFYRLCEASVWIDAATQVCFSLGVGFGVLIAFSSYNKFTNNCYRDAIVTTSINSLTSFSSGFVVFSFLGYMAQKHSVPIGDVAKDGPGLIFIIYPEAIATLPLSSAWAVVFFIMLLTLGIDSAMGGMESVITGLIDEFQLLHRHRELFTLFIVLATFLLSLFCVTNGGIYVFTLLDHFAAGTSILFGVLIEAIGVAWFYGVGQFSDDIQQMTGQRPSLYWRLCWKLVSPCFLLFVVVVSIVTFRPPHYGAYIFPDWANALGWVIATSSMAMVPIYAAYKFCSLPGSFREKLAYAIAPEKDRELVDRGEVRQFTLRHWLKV

Usually Ki stands for a measure of affinity in units of concentration, obtained from inhibition or displacement. The IC50 is the concentration needed to halve the response being measured. Regarding `COC(=O)C(c1ccccc1)C1CCCCN1` (stereo not drawn) [MPH, methylphenidate, reference compound], the “time of occurrence of stimulant effects following injection” value with male Swiss-Webster mice (mice, IP) is no more than 10 min. Further, in the data set on male Swiss-Webster mice (mouse, in vivo), the “duration of stimulant effects” value was “up to 4 hours”. The “binding to or reuptake at the serotonin transporter” value in data set [1] is “neither MPH nor the MPH analogs demonstrated significant binding to or reuptake at the serotonin transporter”. Also, the Ki in data set [1] (setting [8]) came to 40000 ± 8000 nM; in data set [4] (NOREPINEPHRINE [I125]-RTI-55 BINDING (Ki), RR/SS racemates table, HEK 293 cells), 1800 ± 800 nM; in data set [4] (NOREPINEPHRINE [I125]-RTI-55 BINDING (Ki), RS/SR racemates table, HEK 293 cells), 1800 ± 800 nM. For the same molecule, the concentration for half-maximal inhibition (IC50) in data set [2] (NORE[…] REUPTAKE (IC50), RR/SS racemates table, HEK 293 cells) was 38 ± 4 nM; in data set [2] (NORE[…] REUPTAKE (IC50), RS/SR racemates table, HEK 293 cells), 38 ± 4 nM; in data set [3] (setting [9]), 55000 ± 16000 nM; in data set [3] (setting [10]), 55000 ± 16000 nM. The “time of maximum drug concentration after oral administration” value in data set [5] was “about two hours”.

As to `CC(C)CC(c1ccc(Cl)cc1)C1CCCCN1` (racemic) [Sample D], the IC50 in data set [6] (setting [11]) worked out at 8.6 ± 2.9 nM; in data set [2] (setting [12]) it was 120 ± 40 nM. In addition, the “duration of stimulant effects” value in the data set on male Swiss-Webster mice (mice, IP, 3 mg/kg) was “up to 4 hours”; with male Swiss-Webster mice (mice, IP, 10 mg/kg), no more than 5 h; in the data set on male Swiss-Webster mice (mice, IP, 30 mg/kg), “over 8 hours”. Also, the “time of occurrence of stimulant effects following injection” value with male Swiss-Webster mice (mice, IP) is on record as “at least 20 minutes”. Moreover, the Ki in data set [4] (setting [13]) is 840 ± 130 nM; in data set [7] (setting [14]), 16 ± 4 nM. For the same molecule, the “potency at binding to the dopamine transporter and blocking dopamine reuptake” value (from here on “potency at binding”) in data set [7] is “enhanced potency; also recorded: most potent”.

In the case of `COC(=O)[C@H]1[C@@H](OC(=O)c2ccccc2)C[C@@H]2CC[C@H]1N2C` [cocaine], the “period of maximal stimulant effects” value in the data set with male Swiss-Webster mice (mice, IP, 20 mg/kg) was no more than 30 min. The “duration of stimulant effects” value in the data set with male Swiss-Webster mice (mice, IP, 10, 20, and 40 mg/kg) was “up to 2 hours”. For the same molecule, the “time of occurrence of stimulant effects following injection” value with male Swiss-Webster mice (mice, IP) was no more than 10 min.

On to `CC(C)CC(c1ccc(Cl)c(Cl)c1)C1CCCCN1C` (single isomer, unassigned) [OO], for which the concentration for half-maximal inhibition (IC50) in data set [6] (setting [15]) was 45 ± 4 nM; in data set [2] (RS/SR racemates table, HEK 293 cells, read-out: NOREPINEPHRINE NE REUPTAKE (IC50)), 100 ± 19 nM; in data set [3] (setting [10]), 2400 ± 700 nM. Besides, the Ki in data set [1] (RS/SR racemates table, HEK 293 cells, read-out: SEROTONIN [I125]-RTI-55 BINDING (Ki)) stood at 1500 ± 300 nM; in data set [4] (RS/SR racemates table, HEK 293 cells, read-out: NOREPINEPHRINE [I125]-RTI-55 BINDING (Ki)) it was 660 ± 130 nM; in data set [7] (setting [16]) it was 44 ± 12 nM. Further, the “potency at binding” value in data set [7] was “considerably more potent; also recorded: most potent”.

Consider `CCC(c1ccc(Cl)cc1)C1CCCCN1` (single isomer, unassigned) [B], for which the values for the IC50 in data set [6] (setting [17]), in data set [2] (setting [12]) and in data set [3] (setting [9]) were 23 ± 5 nM, 210 ± 30 nM and 2400 ± 400 nM, respectively. In data set [6], the “selectivity for the dopamine transporter over the norepinephrine transporter” value (“selectivity for the dopamine transporter” for short) was “enhanced selectivity”. Moreover, the “NE/DA REUPTAKE” value in data set [6] was 9.1. Moreover, the Ki in data set [1] (setting [8]) turned out to be 7800 ± 800 nM; in data set [4] (setting [13]), 360 ± 60 nM; in data set [7] (setting [18]), 37 ± 10 nM.

As for `CC(C)CC(c1ccc(C(C)C)cc1)C1CCCCN1` (racemic) [P], the results for the IC50 in data set [6] (setting [17]), in data set [2] (NORE[…] REUPTAKE (IC50)) and in data set [3] (setting [9]) were 4000 ± 400 nM, 7100 ± 1800 nM and 4700 ± 700 nM, respectively. The “NE/DA REUPTAKE” value in data set [6] was 1.8. The Ki is 3300 ± 600 nM in data set [1] (setting [8]), 2500 ± 600 nM in data set [4] (setting [19]) and 3300 ± 600 nM in data set [7] (setting [18]).

Take `Clc1ccc(C(Cc2ccccc2)C2CCCCN2)cc1` (single isomer, unassigned) [J]: the results for the half-maximal inhibitory concentration (IC50) in data set [6] (setting [17]), in data set [2] (NORE[…] REUPTAKE (IC50)) and in data set [3] (setting [9]) were 370 ± 90 nM, 2900 ± 600 nM and 1100 ± 200 nM, respectively. Besides, in data set [6], the “selectivity for the dopamine transporter” value was “enhanced selectivity”. Moreover, in data set [6], the “NE/DA REUPTAKE” value came out at 7.8. The inhibition constant (Ki) in data set [1] (setting [8]) worked out at 1100 ± 200 nM; in data set [4] (setting [19]), 2900 ± 800 nM; in data set [7] (setting [18]) it was 440 ± 110 nM.

As for `CCCC(c1ccc(Cl)cc1)C1CCCCN1` (racemic) [Sample E], the half-inhibitory concentration (IC50) was 7.4 ± 0.4 nM in data set [6] (setting [11]); 50 ± 15 nM in data set [2] (setting [12]); 2900 ± 1100 nM in data set [3] (RR/SS racemates table, read-out: SEROTONIN 5HT REUPTAKE (IC50)). The “selectivity for the dopamine transporter” value in data set [6] is listed as “enhanced selectivity”. In addition, in data set [6], the “NE/DA REUPTAKE” value is 6.8. In addition, the values for the Ki in data set [1] (setting [20]), in data set [4] (setting [13]) and in data set [7] (setting [14]) were 2700 ± 600 nM, 200 ± 80 nM and 11 ± 3 nM, respectively. The “potency at binding” value in data set [7] is given as “enhanced potency; also recorded: most potent”.

In the case of `CC(C)CC(c1ccc(Cl)c(Cl)c1)C1CCCCN1C` (single isomer, unassigned) [O], the 50% inhibitory concentration (IC50) was 13 ± 4 nM in data set [6] (setting [17]), 29 ± 3 nM in data set [2] (setting [12]) and 1400 ± 500 nM in data set [3] (setting [9]). Moreover, in data set [6], the “NE/DA REUPTAKE” value came to 2.2. Further, the inhibitory constant (Ki) in data set [1] (setting [20]) came to 1300 ± 200 nM; in data set [4] (setting [13]), 190 ± 60 nM; in data set [7] (setting [18]), 6.6 ± 0.9 nM.

As for `Clc1ccc(C(Cc2ccccc2)C2CCCCN2)cc1` (single isomer, unassigned) [JJ], the figures for the IC50 in data set [6] (setting [15]), in data set [2] (NORE[…] REUPTAKE (IC50)) and in data set [3] (setting [10]) were 390 ± 60 nM, greater than 800 nM and 4700 ± 500 nM, respectively. Besides, the values for the inhibition constant Ki in data set [1] (setting [8]), in data set [4] (setting [19]) and in data set [7] (setting [16]) were 4300 ± 800 nM, 4000 ± 800 nM and 550 ± 60 nM, respectively.
